The target in one experiment is Mucolipin-3 (Homo sapiens, UniProt Q8TDD5). The experiment can be described thus: Dose response cell-based high-throughput screening assay for agonists of the transient receptor potential channel ML3 (TRPML3). [Related pubchem assays: 1526, 1424, 1448 ]. Type of experiment: functional.
The next experiment deals with Ion channel NompC (Danio rerio, UniProt Q7T1G6). The experiment can be described thus: Fluorescence counterscreen assay for TRPML3 agonists: dose response cell-based high-throughput screening assay to identify agonists of the transient receptor potential channel N1 (TRPN1). [Related pubchem assays: 1526, 1424, 1448 ]. The format is functional. On the technique in general: A counterscreen serves to expose hits that act by an unwanted route or on another target.

For experiment [1], the target named is T1, Corticotropin-releasing factor receptor 2/Corticotropin-releasing factor-binding protein (Homo sapiens, UniProt P24387+Q13324).
T1 sequence (Q13324 whole entry): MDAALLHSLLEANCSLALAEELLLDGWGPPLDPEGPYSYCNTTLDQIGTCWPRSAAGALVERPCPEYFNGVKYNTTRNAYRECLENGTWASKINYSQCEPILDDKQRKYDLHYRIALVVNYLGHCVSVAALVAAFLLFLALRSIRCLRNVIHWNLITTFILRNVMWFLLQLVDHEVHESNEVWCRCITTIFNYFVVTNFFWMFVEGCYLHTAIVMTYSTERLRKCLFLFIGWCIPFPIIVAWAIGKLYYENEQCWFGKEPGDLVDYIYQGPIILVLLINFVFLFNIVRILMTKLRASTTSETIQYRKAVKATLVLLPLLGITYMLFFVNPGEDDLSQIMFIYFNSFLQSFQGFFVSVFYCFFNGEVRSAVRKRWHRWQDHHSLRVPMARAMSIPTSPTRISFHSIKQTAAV
T1 sequence (P24387 whole entry): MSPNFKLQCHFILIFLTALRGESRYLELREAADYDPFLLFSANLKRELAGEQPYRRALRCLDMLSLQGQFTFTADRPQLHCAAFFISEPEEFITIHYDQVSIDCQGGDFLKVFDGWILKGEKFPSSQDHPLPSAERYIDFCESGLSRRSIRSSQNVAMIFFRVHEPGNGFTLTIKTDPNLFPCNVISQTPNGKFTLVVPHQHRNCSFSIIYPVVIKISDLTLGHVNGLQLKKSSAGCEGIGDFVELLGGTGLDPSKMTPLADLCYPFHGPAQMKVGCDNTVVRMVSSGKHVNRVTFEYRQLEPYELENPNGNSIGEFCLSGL
The experiment can be described thus: activators of CRF receptor 2 with binding protein – uHTS hits, confirmation (AID 602473). The format is functional. Particulars: read-out: EC50_Mean.

The target in experiment [2] is T2, RNA-binding protein pos-1 (Caenorhabditis elegans, UniProt G5EF15).
T2 sequence (G5EF15 whole entry): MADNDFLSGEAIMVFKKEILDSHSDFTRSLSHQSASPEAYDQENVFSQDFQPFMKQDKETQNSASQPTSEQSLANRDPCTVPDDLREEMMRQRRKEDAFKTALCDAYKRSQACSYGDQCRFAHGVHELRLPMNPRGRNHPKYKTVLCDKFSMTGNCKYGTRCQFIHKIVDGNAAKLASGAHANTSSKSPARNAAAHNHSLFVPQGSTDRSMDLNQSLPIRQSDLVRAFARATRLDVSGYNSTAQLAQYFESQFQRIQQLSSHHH
The experiment can be described thus: disruptors of C. elegans POS-1 RNA interaction – biochemical, fluorescence polarization, dose response (AID 1964).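 Also: purified POS-1 fused to maltose binding protein made in E. coli; potency of compounds blocking POS-1 binding to fluorescent RNA.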 For orientation: In fluorescence polarisation assays a small probe gives low polarisation when free and higher when bound to something large.

The target of experiment [3] is T3, Neuropeptide Y receptor type 1 (Homo sapiens, UniProt P25929).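 Also: HEK293 cells with a CNG channel challenged with NPY then isoproterenol; potency as antagonist that reverses NPY suppression of cAMP signal.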
T3 sequence (P25929 whole entry): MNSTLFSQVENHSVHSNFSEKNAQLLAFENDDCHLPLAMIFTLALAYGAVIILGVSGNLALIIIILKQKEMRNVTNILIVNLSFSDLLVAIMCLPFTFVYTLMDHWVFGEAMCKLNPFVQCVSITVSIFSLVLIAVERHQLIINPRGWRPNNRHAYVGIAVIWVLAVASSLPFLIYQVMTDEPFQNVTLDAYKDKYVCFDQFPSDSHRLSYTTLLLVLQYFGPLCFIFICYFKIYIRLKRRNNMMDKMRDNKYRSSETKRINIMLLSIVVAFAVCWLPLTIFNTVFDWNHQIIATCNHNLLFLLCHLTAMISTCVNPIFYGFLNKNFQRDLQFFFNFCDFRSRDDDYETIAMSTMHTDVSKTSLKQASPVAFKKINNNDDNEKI
The format is functional.

Experiment [4] concerns the target T4, Zinc finger protein mex-5 (Caenorhabditis elegans, UniProt Q9XUB2).
T4 sequence (Q9XUB2 whole entry): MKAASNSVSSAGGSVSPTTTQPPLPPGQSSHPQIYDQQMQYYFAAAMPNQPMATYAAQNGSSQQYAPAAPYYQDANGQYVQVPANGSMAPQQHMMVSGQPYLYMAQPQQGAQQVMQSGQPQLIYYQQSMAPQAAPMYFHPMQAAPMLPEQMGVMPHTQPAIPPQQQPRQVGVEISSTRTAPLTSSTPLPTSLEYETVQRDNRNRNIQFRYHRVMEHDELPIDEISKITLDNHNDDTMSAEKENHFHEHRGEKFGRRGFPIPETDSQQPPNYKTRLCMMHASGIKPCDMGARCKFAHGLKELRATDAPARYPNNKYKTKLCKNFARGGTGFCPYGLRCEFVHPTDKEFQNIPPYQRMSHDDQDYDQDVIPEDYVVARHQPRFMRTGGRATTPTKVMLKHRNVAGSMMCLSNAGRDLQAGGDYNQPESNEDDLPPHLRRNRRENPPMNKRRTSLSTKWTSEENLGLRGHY
The experiment can be described thus: potency of MEX-5 RNA-binding blockers – biochemical, C. elegans, fluorescence polarization, dose response (AID 1960).

Experiment [5] concerns the target T5, Neuropeptide Y receptor type 2 (Homo sapiens, UniProt P49146).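 Also: HEK293 cells expressing the receptor and a CNG channel; stimulus was NPY near EC95 followed by isoproterenol to raise cAMP; antagonist potency measured as restoring cAMP signal that NPY suppresses.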
T5 sequence (P49146 whole entry): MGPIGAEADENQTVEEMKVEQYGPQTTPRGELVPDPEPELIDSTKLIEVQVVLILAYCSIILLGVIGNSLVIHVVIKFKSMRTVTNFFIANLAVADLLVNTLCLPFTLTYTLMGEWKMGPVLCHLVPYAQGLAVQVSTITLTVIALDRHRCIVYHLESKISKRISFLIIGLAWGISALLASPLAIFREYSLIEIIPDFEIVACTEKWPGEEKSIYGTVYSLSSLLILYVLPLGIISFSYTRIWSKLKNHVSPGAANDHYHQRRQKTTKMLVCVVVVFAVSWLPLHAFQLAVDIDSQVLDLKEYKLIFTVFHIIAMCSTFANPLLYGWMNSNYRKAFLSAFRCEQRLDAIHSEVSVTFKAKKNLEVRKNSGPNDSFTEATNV
Type of experiment: functional, cell-based.

The target of experiment [6] is Luciferin 4-monooxygenase (Photinus pyralis, UniProt P08659). The experiment can be described thus: Counter Screen for Luciferase-based Assay Positives. [Related pubchem assays: 620, 618, 411 ].
The test system of the next experiment is HT-1080. The experiment can be described thus: HT1080 cell viability loss – fluorescence readout (AID 620). Type of experiment: functional, cell-based. Particulars: Homo sapiens.
A short description of experiment [7]: cells. Type of experiment: functional, cell-based.
The nature of experiment [8]: cells. The format is functional, cell-based. This is another data set of the same source.

Active and inactive are the calls of the source. Where only a bound is given, the exact number is not on record here.

Chain of Mucolipin-3 (Q8TDD5 whole entry): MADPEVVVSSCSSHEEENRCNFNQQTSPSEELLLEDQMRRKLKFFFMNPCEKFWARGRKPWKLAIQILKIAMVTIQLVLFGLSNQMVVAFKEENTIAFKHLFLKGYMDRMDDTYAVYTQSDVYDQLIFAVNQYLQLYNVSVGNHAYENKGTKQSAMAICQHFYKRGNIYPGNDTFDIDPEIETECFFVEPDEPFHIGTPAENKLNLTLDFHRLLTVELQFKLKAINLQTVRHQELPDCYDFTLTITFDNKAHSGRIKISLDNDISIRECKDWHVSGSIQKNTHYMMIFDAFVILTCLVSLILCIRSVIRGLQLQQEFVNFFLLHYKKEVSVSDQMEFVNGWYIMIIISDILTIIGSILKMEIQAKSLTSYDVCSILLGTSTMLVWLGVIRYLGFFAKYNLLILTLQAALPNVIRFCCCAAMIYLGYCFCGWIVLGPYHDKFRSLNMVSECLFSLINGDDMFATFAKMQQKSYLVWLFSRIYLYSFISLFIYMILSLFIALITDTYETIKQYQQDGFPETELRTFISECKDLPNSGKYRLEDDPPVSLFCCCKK
Chain of Ion channel NompC (Q7T1G6 whole entry): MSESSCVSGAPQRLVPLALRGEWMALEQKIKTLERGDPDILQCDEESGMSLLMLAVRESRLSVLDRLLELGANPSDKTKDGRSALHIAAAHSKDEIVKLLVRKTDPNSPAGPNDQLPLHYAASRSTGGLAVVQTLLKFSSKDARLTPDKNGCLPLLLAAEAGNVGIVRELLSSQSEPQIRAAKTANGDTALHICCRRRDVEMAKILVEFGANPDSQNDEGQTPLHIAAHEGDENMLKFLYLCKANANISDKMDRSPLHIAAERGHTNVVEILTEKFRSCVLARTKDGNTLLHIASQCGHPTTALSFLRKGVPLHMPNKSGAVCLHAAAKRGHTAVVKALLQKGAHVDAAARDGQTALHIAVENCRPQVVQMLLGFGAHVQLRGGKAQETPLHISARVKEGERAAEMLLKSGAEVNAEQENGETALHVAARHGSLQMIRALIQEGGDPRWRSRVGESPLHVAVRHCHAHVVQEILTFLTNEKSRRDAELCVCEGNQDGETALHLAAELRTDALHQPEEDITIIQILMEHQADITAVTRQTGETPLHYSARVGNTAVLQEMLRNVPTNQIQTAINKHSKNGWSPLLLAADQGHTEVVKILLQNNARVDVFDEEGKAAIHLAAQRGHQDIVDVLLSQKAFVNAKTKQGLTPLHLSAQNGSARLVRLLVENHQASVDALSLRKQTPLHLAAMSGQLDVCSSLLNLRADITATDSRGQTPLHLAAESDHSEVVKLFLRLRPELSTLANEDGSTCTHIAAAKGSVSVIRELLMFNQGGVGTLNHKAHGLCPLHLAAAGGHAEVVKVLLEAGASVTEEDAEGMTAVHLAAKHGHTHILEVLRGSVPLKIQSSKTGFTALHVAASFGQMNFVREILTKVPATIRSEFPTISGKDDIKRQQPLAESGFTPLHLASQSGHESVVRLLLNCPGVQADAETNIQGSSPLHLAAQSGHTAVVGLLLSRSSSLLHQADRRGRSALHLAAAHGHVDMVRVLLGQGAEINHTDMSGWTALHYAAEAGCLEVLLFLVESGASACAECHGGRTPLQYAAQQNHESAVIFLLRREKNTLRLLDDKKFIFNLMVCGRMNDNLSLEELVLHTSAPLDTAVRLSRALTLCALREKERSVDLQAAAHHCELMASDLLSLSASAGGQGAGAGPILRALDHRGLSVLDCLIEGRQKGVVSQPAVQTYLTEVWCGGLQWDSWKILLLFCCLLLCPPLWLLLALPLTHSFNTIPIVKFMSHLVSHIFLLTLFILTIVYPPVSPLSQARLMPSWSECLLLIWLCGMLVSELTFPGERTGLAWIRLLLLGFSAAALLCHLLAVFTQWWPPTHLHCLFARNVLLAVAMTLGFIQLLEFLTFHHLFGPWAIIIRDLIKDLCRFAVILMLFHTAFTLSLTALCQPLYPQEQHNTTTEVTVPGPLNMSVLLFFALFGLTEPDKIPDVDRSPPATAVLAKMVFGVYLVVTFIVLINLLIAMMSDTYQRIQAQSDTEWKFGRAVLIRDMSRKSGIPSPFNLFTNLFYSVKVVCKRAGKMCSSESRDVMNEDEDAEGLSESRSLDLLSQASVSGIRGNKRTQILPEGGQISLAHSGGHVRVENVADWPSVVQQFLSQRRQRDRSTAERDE
Chain of Luciferin 4-monooxygenase (P08659 whole entry): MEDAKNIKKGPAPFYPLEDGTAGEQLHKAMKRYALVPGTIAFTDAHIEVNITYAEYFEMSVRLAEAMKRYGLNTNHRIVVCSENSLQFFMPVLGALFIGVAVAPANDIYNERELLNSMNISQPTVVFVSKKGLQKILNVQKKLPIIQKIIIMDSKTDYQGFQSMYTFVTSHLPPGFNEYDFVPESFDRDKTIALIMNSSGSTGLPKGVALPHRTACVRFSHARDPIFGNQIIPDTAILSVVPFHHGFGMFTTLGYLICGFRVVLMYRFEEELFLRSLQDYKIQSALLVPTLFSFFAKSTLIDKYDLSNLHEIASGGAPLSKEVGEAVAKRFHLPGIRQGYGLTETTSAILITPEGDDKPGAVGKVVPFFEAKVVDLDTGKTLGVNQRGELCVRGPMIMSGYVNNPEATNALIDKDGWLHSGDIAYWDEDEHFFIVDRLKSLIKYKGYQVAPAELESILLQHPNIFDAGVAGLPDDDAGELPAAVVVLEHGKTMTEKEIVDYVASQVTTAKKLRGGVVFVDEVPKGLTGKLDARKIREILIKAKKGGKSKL

Consider `COc1ccc(C(=O)CSc2nnn(-c3cccc(NC(C)=O)c3)n2)cc1`, for which the EC50 at Mucolipin-3 is 17.3 µM (not active); at Ion channel NompC, 9.35 µM (active); in [1], 4.96 µM (active).
The term IC50 denotes the concentration needed to halve the response being measured. Take `O=C1C2CC=C(Cl)CC2C(=O)N1CC1Cc2ccccc2CO1` (stereo not given): the EC50 in experiment [2] was 23 µM (active); in experiment [4], 22 µM (active). In addition, the IC50 was 7.82 µM (active) in experiment [3] and 5.72 µM (active) in experiment [5].
As for `CC(C)[C@H](NS(=O)(=O)c1ccccc1)C(=O)OCC(=O)Nc1ccccc1Sc1ccccc1`, the results for the EC50 at Mucolipin-3 and at Ion channel NompC were 3.96 µM (active) and > 29.9 µM (not active), respectively.
Take `COc1ccc(S(=O)(=O)N2CCN(C(=O)CCC3CCCC3)CC2)cc1`: the EC50 in experiment [6] was 2.3 µM (active); with HT-1080, > 50 µM (not active).
As to `CCCCCCCCCS(=O)(=O)N/N=C/c1cccc([N+](=O)[O-])c1`, the IC50 in experiment [3] and in experiment [5] was > 35 µM (not active) throughout. Also, the EC50 in “cells [7]” was > 350 µM (not active); in “cells [8]”, 23.7 µM (active).

The values are drawn from ChEMBL document CHEMBL1201862, “PubChem BioAssay data set” (2004).
